Consider 2 compounds from patent publication US12011447B2, “Pharmaceutical composition for treating thyroid cancer comprising tyrosine kinase activity inhibitor as active ingredient” (Kyungpook National University Industry-Academic Cooperation …, priority 2017, dated 2024).

The structures appear in SMILES notation.

One assay concerns 8505C cells. In words: In vitro 125I uptake assay. To be noted: anaplastic thyroid cancer cells. Type of assay: cell-based, human. How it is done: 8505C cells (1.25×10^5) were seeded and incubated in a 24-well plate for 24 hours, and then treated with TKI-0266 and further incubated for 24 hours. Thereafter, the medium was removed, and the cells were washed with bHBSS (Hank's balanced salt solution containing 0.5% BSA). The cells were incubated with 500 μl of bHBSS, 3.7 kBq carrier-free ^125I (Perkin-Elmer), and 10 μmol/L sodium iodide (specific activity of 740 MBq/mmol) at 37° C. for 30 minutes. Thereafter, the cells were washed twice with cold bHBSS and lysed by adding 500 μL of 2% SDS solution thereto. Radioactivity was measured using a Cobra II gamma-counter (Canberra Packard, Canada). The ^125I uptake values were normalized by comparing the amount of total protein determined by BCA protein assay kit.

The subject of assay [1] is anaplastic thyroid cancer xenograft (8505C-PNIS-PCMV). Description: Tumor growth inhibition in xenograft mice (tumor size, R-luc BLI). It is filed as in vivo, Balb/c nude mice. Particulars: single agent administration. How it is done: Female Balb/c nude mice, 5.5-week old with an average weight of 18.9±0.37 g (mean±standard deviation [SD]), were purchased (Hamamatsu, Shizuoka, Japan). The mice were acclimated under specific pathogen-free conditions for one week before starting the experiment, and were maintained at a temperature of 20 to 25° C. and a relative humidity of 40 to 70%. To establish anaplastic thyroid cancer xenograft mouse models, 8505C-PNIS-PCMV s (5×10^6) were mixed with Matrigel (Corning) at a ratio of 1:1 and injected subcutaneously into the right flank region of each mouse.
In addition, in order to evaluate the effect of TKI-0266 administration on the treatment of thyroid cancer, mice for use in the experiment were divided into four groups (n=5): the vehicle group; the ^131I-administered group (injected intraperitoneally with 1 mCi Na-^131I on day 2 of the experiment; the TKI-0266-administered group (injected intraperitoneally with 50 mg/kg of TKI-0266 for 5 days); and the group co-administered with ^131I and TKI-0266 (injected intraperitoneally with 50 mg/kg of TKI-0266 for 5 days, and injected intravenously with 1 mCi Na-^131I on day 2; n=5). To measure the degree of tumor growth, h-coelenterazine (15 μg/ml) was administered to the mice by intravenous injection, and then the R-luc activity was monitored by BLI every 5 days.

Take `[K+].[O-][Cl+3]([O-])([O-])[O-]` [KCIO4, reference compound]: the “iodine uptake on treatment with NIS inhibitor” value with 8505C cells is “completely blocked”.

As to `[131I-].[Na+]` [^131I, Na-^131I, reference compound], the “tumor size on days 6 and 11” value in assay [1] is “continuous increase”.
